From patent US12371432B2, “Haloallylamine compounds and application thereof” (TransThera Sciences (Nanjing), Inc., priority 2019, dated 2025)
Counter-ions that a name gives are not always drawn. Like-named read-outs stand apart in the source and are kept apart here.

Key:
[1] = Rat blood-brain barrier evaluation; assay type: in vivo; conditions: rat, oral, SD rats, intragastric 10 mg/kg
Method: (1) Animal Administration and Sampling Method:
The study compound A1, the compound A41 and PXS-4728 were dissolved in normal saline to prepare solutions. The prepared solutions were separately administered by intragastric administration to SD rats at a dose of 10 mg/kg. […] At each time point, samples were collected from three SD rats.
On the day of the study, the animals were fixed to collect 0.15 mL of blood from the jugular vein at each set time point, and the whole blood samples were put into anticoagulation tubes containing EDTA-K2. After blood sampling was completed, heart perfusion was immediately performed for the animals, and following the heart perfusion, brain tissue samples were collected.
After the whole blood samples were centrifuged under the condition of 1,524 g for 10 min, top plasma samples were collected into sample tubes. The tissue samples were weighed, added with 20% of aqueous methanol solution at a weight-to-volume ratio of 1:5 (tissue:homogenate) and homogenized. The biological samples were stored at −40° C. to −20° C. for analysis.
(4) Sample Analysis Method:
(§1) Plasma sample: The samples to be tested were taken out of the refrigerator, naturally thawed at room temperature and then swirled for 5 min, and 20 μL of plasma sample was accurately pipetted into 1.5 mL centrifuge tubes. 100 μL of internal standard working solution (solution of 5 ng/mL verapamil and 50 ng/mL glibenclamide in acetonitrile) was added, and uniform mixing was performed. After 1 min of swirling, centrifugation was performed at 13,000 rpm for 8 min. 40 μL of supernate was accurately pipetted into a 96-well plate added with 160 μL water/well in advance. Uniform mixing was performed by swirling for 10 min, followed by LC-MS/MS assay.
as §1, with “Brain tissue” for “Plasma”, “50” for “20”, “250” for “100”, “30” for “40”, “150” for “160”
(5) Data Processing Method:
Analyst 1.6.2 from AB Sciex was used to output concentration results of tested compounds. Microsoft Excel was used to calculate parameters such as mean value, standard deviation and variation coefficient (excluding those outputted directly by Analyst 1.6.2).

rhAOC1 = biological target: T1, rhAOC1 (Homo sapiens, UniProt P19801); assay: Selectivity against rhAOC1 enzyme (Biological Example 2); assay type: biochemical; conditions: Table 2; histamine substrate, Amplex Red/HRP
T1 construct: purchased R&D
T1 sequence (P19801 20-751): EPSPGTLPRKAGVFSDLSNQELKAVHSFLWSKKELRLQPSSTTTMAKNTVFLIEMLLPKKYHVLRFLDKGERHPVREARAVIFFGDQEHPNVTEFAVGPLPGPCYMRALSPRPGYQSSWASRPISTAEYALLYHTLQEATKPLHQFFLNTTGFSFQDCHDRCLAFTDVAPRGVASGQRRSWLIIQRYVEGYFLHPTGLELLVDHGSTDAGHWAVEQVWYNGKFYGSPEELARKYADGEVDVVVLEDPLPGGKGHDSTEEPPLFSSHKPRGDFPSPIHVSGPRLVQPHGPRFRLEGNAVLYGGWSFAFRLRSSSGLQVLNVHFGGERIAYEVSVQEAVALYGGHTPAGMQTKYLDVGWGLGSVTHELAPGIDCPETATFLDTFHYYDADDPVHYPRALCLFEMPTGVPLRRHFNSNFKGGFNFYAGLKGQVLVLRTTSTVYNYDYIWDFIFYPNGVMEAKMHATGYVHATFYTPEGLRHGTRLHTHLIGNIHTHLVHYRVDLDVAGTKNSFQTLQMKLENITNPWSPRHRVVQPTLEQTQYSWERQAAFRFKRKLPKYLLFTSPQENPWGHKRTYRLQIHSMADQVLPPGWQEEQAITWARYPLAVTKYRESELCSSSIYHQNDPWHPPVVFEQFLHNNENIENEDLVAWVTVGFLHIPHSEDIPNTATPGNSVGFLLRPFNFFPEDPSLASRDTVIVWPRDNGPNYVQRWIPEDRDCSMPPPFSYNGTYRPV
Method: 2. Selectivity of Compounds Against rhAOC1 Enzyme
(§2) (1) Instrument, Consumable and Reagent
Microplate reader (Perkin Elmer, Nivo 5S), black unclear-bottom 96-well plate (Corning) and rhAOC1 (R&D)
(§3) (2) Preparation of Concentration Gradient Compound Solutions
(§4) An appropriate amount of the compound to be tested was taken, dissolved in DMSO to 10 mM and then stored. Before the study, an appropriate amount of mother liquor of the 10 mM compound to be tested was taken and gradiently diluted 3-fold with DMSO, 10 concentration gradients in total. Each concentration gradient was then diluted 10-fold with 0.1 M of PBS.
(§5) (3) Preparation of Enzyme Solutions
An appropriate amount of rhAOC1 mother liquor with a concentration of 0.441 mg/mL was taken and diluted with an appropriate amount of 50 mM HEPES buffer solution to obtain enzyme solutions of 4× concentrations.
(§6) (4) Preparation of Substrate Mixtures of 2× Concentrations
An appropriate amount of histamine was weighed and dissolved with 50 mM of HEPES buffer solution to obtain 20 mM of histamine solution. The histamine solution was added with 2 mM of Amplex Red mother liquor and 500 U/mL of HRP mother liquor and diluted with 50 mM of HEPES buffer solution to obtain substrate mixtures of 2× concentrations.
(§7) 10 μL compound solutions of different concentrations, 25 μL rhAOC1 enzyme solutions of 4× concentrations and 15 μL of 50 mM HEPES buffer solution were first added into a 96-well plate, shaken to be mixed uniformly and then incubated at 37° C. for 30 min. 50 μL substrate mixtures of 2× concentrations were then added into each well, and the microplate reader was immediately used to detect fluorescence intensity of each well with 580 nm (20 nm) exciting light and 620 nm (10 nm) emission light for 5 min each time, 30 min in total. The inhibition rate was calculated according to the following formula: V (RFU/min)=(Ft (RFU)−F0 (RFU))/(time(min)) Inhibition rate (%)=100%−Vcmpd (RFU/min)/Vmax (RFU/min)×100%
(§8) V: fluorescence change rate; Ft: fluorescence reading at time point t; F0: initial fluorescence reading; Time: duration t; Vcmpd: fluorescence change rate of tested compound; Vmax: Max hole fluorescence change rate.
(§9) (6) Fitting of Dose-Response Curve
(§10) With the log value of concentration as the X axis and the percent inhibition rate as the Y axis, the log (inhibitor) vs. response-variable slope of analysis software GraphPad Prism 5 was used to fit a dose-response curve, thus obtaining the IC50 value of activity of each compound against the enzyme.

rhVAP-1 = biological target: T2, rhVAP-1 (Homo sapiens, UniProt Q16853); assay: Inhibitory activity against rhVAP-1 enzyme (Biological Example 2); assay type: biochemical; conditions: Table 2; benzylamine substrate, Amplex Red/HRP
T2 construct: purchased PeproTech
T2 sequence (Q16853 27-763 limits assumed): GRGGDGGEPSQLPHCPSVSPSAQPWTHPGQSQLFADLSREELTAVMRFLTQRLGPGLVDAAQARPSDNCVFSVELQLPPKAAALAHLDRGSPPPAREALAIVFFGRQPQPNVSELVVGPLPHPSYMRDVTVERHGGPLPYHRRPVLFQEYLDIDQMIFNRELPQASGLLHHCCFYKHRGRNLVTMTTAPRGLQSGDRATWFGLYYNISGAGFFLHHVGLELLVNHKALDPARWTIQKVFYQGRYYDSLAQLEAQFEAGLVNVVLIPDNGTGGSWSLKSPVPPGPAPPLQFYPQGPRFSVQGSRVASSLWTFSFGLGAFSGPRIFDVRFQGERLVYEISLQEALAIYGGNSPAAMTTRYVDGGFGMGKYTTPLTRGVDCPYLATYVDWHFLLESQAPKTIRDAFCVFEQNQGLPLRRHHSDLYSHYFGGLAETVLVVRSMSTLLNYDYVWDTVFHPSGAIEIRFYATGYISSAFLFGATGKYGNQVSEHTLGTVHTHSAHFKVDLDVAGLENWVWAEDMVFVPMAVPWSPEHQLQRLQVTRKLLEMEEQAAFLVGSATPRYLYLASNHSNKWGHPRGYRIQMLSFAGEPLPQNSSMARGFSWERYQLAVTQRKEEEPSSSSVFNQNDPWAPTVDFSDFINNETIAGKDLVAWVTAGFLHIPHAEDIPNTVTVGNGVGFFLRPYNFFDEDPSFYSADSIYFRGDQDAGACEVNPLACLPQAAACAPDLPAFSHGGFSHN
Method: 1. Inhibitory Activity of Compounds Against rhVAP-1 Enzyme
as §2
Microplate reader (Perkin Elmer, Nivo 5S), black unclear-bottom 96-well plate (Corning) and rhVAP-1 (PeproTech)
as §3
as §4, with “100-fold” for “10-fold”
as §5
An appropriate amount of protein diluent was added into rhVAP-1 powder, obtaining 1 mg/mL of mother liquor for storage. Before the study, PBS was used to carry out dilution to obtain enzyme solutions of 4× concentrations.
as §6
An appropriate amount of benzylamine was weighed and dissolved with PBS to obtain 200 mM of benzylamine solution. The benzylamine solution was added with 2 mM of Amplex Red mother liquor and 500 U/mL of HRP mother liquor and diluted with PBS to obtain substrate mixtures of 2× concentrations.
as §7, with “rhVAP-1” for “rhAOC1”, “PBS” for “50 mM HEPES buffer solution”, “perform detection” for “detect fluorescence intensity of each well”
as §8, §9, §10

| Compound | concentration at 0.167 h ([1]; brain, 0.167 h, read-out: Average Brain tissue concentration (N=3)) [ng/g] | concentration at 1 h ([1]; brain, 1 h, read-out: Average Brain tissue concentration (N=3)) [ng/g] | concentration at 6 h ([1]; brain, 6 h, read-out: Average Brain tissue concentration (N=3)) [ng/g] | Kp at 0.167 h ([1]; brain/plasma, 0.167 h, read-out: Mean brain tissue/plasma concentration ratio) | Kp at 1 h ([1]; brain/plasma, 1 h, read-out: Mean brain tissue/plasma concentration ratio) | Kp at 6 h ([1]; brain/plasma, 6 h, read-out: Mean brain tissue/plasma concentration ratio) | concentration at 0.167 h ([1]; plasma, 0.167 h, read-out: Average Plasma concentration (N=3)) [ng/mL] | concentration at 1 h ([1]; plasma, 1 h, read-out: Average Plasma concentration (N=3)) [ng/mL] | concentration at 6 h ([1]; plasma, 6 h, read-out: Average Plasma concentration (N=3)) [ng/mL] | IC50 (rhAOC1) [µM] | IC50 (rhVAP-1) [µM] |
| --- | --- | --- | --- | --- | --- | --- | --- | --- | --- | --- | --- |
| CC(C)(C)NC(=O)c1ccc(OC/C(=C/F)CN)cc1 [PXS-4728, reference compound] | 337 | 1400 | 311 | 0.89 | 1.34 | 1.89 | 373 | 1040 | 175 |  |  |
| COC1(C)CCN(C(=O)c2ccc3c(ccn3C/C(=C/F)CN)c2)CC1 [Compound C15 hydrochloride, (E)-(1-(2-(aminomethyl)-3-fluoroallyl)-1H-indol-5-yl)(4-methoxy-4-methylpiperidin-1-yl)methanone] |  |  |  |  |  |  |  |  |  | 8.38 | 0.063 |
| CC(C)(C)NC(=O)c1cnn(C/C(=C/F)CN)c1 [Compound B3, (E)-1-(2-(aminomethyl)-3-fluoroallyl)-N-(tert-butyl)-1H-pyrazole-4-carboxamide] |  |  |  |  |  |  |  |  |  | 12.5 | 0.089 |
